Reference: ChEMBL document CHEMBL3507680, “University of Dundee, Gates Library screen for HepG2 cell viability”

Test: Human HepG2 cell viability assay in 384 well format
Format: toxicity, cell-based
Design: dose 125 nL, time 70.5 hour; concentration not given beside the values
Conditions: HepG2 cells, read-out: Inhibition

Row | Compound | cytotoxicity at 70.5 h [%]
1 | CS(=O)(=O)N1CCc2ccc(=O)n(CC3CCOCC3)c2CC1 | -7.42
2 | Cc1ccc2c(c1)C1(CCNCC1)CC2OCC1CC1 (configuration not stated) | -1.43
3 | COCCC(=O)N1Cc2[nH]nc(COc3cccnc3)c2C1 | -13.5
4 | CN(C)C(=O)CN1C[C@H]2CCN(C(=O)c3ccccc3)CC[C@H]2S1(=O)=O | -10.6
5 | CC(C)n1cnc(C2CN(C)c3ccc(C(=O)NC4CCCC4)cc32)n1 (configuration not stated) | -5.54
6 | CN(Cc1ccccc1)CC1CC2(CO1)CN(c1nncs1)C2 (configuration not stated) | -8.78
7 | FC1(F)CCNCC12CCN(c1ccccn1)C2 (configuration not stated) | 9.9
8 | Fc1cnc(N2CCCn3c(nnc3Cn3cccn3)C2)nc1 | 12.7
9 | CC(=O)NCC(=O)NC1CCc2c(ccc(=O)n2CC2CC2)C1 (configuration not stated) | -1.98
10 | CC1c2ncc(COCC3CCOCC3)n2CCN1S(C)(=O)=O (configuration not stated) | -1.95
11 | Cn1c2c(ccc1=O)CC(NC(=O)Cc1ccsc1)CC2 (configuration not stated) | -2.49
12 | O=S(=O)(C1CC1)N1CCc2ncnc(-c3ccsc3)c2CC1 | -0.114
13 | O=C(CC1CC1)NC1CCc2c(ccc(=O)n2CC2CC2)C1 (configuration not stated) | 0.842
14 | FC1(F)CCNCC12CCN(c1ncccn1)C2 (configuration not stated) | -4.34
15 | Cn1cc(CN2C[C@@H]3COC[C@]3(C(=O)N3CCCO3)C2)cn1 | -1.04
16 | CCOCc1cncc2c1CCN(S(=O)(=O)c1cccc(C)c1)C2 | -4.1
17 | O=S(=O)(C1CC1)N1CCc2ncnc(-c3ccc(F)cc3)c2CC1 | 0.906
18 | CCN1CC[C@]2(CN(C(=O)C3CCOCC3)C[C@H]2c2ccccc2)C1=O | 0.473
19 | c1cc(CN2CCO[C@@H]3CNC[C@@H]32)co1 | 3.81
20 | CNC(=O)N1CCN(C(=O)N(C)C)CC2(CC(=O)N(C)C2)C1 (configuration not stated) | -20
21 | COCC(=O)N1CC[C@H]2N(C)CC[C@@]2(C(=O)Nc2ccccc2)CC1 | -20
22 | O=C(c1cccnc1)N1CCN(CC2CC2)c2ncccc2C1 | 0.755

Row | Compound | cytotoxicity at 70.5 h [%]
23 | COCC1COCCC12CCN(C(=O)COc1ccccc1)CC2 (configuration not stated) | -14.3
24 | Cc1noc([C@@H]2CC[C@@H]3[C@@H](CCN3S(C)(=O)=O)O2)n1 | -16.7
25 | CCOCc1cnc2n1CCN(C(=O)C1=CCCC1)C2C (configuration not stated) | -2.23
26 | CCS(=O)(=O)N1CC[C@H]2O[C@H](c3nc(C)no3)CC[C@H]21 | -14.9
27 | CCc1ccc(C(=O)N2CC(C(=O)NC(C)C)C3(CCOCC3)C2)cc1 (configuration not stated) | -20.6
28 | CC(C)CCN1C[C@H]2CCN(C(=O)NC3CCCC3)CC[C@H]2S1(=O)=O | -23.9
29 | COc1ncccc1C(=O)N1CC[C@H]2C[C@@H](c3ccncn3)O[C@@H]2C1 | -18
30 | Cc1nc(N2CCCC2)nc2c1CCN(C(=O)C1CCCCC1)CC2 | -0.729
31 | COc1ncccc1C(=O)N1CC[C@H]2C[C@H](c3ccncn3)O[C@@H]2C1 | -14.1
32 | O=C(c1ccccc1)N1CC[C@H]2C[C@H](c3nccs3)O[C@@H]2C1 | -11.2
33 | CCN1C[C@H]2CCN(C(=O)NC)CC[C@H]2S1(=O)=O | 49
34 | COc1ncccc1C(=O)N1CC[C@H]2C[C@H](c3noc(C)n3)O[C@@H]2C1 | 51.3
35 | Cn1cc(CN2CC[C@H]3OCC[C@@H](C(=O)Nc4cnccn4)[C@@H]3C2)cn1 | 50.6
36 | O=C1CC[C@H]2[C@H](CCN2C(=O)N2CCCC2)N1Cc1ccncc1 | 50.7
37 | CNC(=O)c1cc2c(nc1NCC1CC1)CCN(c1ncccn1)CC2 | -20.8
38 | CC(C)NC(=O)N1CCN(C(=O)NC(C)C)CC2(CNC(=O)C2)C1 | 2.71
39 | CCNc1ncc2c(n1)CN(c1cccc(OC)c1)C2=O | -7.43
40 | Cc1nn(C)c2cnn(Cc3ccc(C(=O)N4CCCCC4)o3)c12 | -5.62
41 | Cc1nn(C)c2cnn(Cc3ccc(C(=O)NCC4CCCO4)o3)c12 (configuration not stated) | -5.42
42 | Cc1nn(C)c2cnn(Cc3ccc(C(=O)NC4CC4)o3)c12 | -1.57
43 | CCn1nc(C)c2c1cnn2CCNS(=O)(=O)Cc1ccccc1 | 11.3
44 | O=C(CCn1ncc2c(Cl)cccc21)NCC1CC1 | -5.33

Row | Compound | cytotoxicity at 70.5 h [%]
45 | O=C(CCn1ncc2c(Cl)cccc21)NCCCO | -5.48
46 | CCn1nc(C)c2ncnc(N(C)C)c21 | -3.05
47 | CCN(CC)c1ncnc2c(C)nn(CC)c12 | -0.883
48 | Cc1ccc(NC(=O)CN2CCOCC2)c(F)c1 | 21.2
49 | CCn1nc(C)c2nc(C)nc(NCCc3ccc(C)cc3)c21 | 34.1
50 | CCc1nc(Nc2ccc(C(=O)NC)cc2)c2c(n1)c(C)nn2CC | -16.9
51 | CCCc1nc(N(C)Cc2ccco2)c2c(n1)c(C)nn2CC | -3.19
52 | CCCc1nc(NCCc2ccccc2)c2c(n1)c(C)nn2CC | -16.2
53 | Cc1nn(C)c2c(N3CCC(C)CC3)nc(C3CC3)nc12 | -11.4
54 | Cc1nn(C)c2c(N3CCCC3)nc(C3CC3)nc12 | -11.4
55 | Cc1nn(C)c2c(NCc3ccc(F)cc3)nc(C3CC3)nc12 | -5.76
56 | Cc1nn(C)c(C)c1CN(C)c1nc(C2CC2)nc2c(C)nn(C)c12 | 29.7
57 | CCn1nc(C)c2nc(C(C)C)nc(N(C)Cc3ccco3)c21 | -17
58 | CCn1nc(C)c2nc(C(C)C)nc(NCc3ccccn3)c21 | 0.25
59 | CCN(CC)CCNc1nc(C(C)C)nc2c(C)nn(CC)c12 | -2.61
60 | CC(C)n1cc(S(=O)(=O)N2CCSCC2)cn1 | -4.27
61 | CSc1ncnc(NCc2ccccc2F)c1C#N | 23.1
62 | COCCCNC(=O)c1nnsc1-c1ccccc1 | -14.7
63 | CC(C)N1CCC2(CC1)C(=O)N(c1cccnc1)c1ccc(F)cc12 | -0.653
64 | CCN1C[C@@H]2CN(c3cc(OC)ncn3)CCC[C@]2(C(=O)O)C1 | -10.9
65 | COc1cc(N2CCC[C@]3(C(=O)O)CN(C(C)C)C[C@@H]3C2)ncn1 | -3.84
66 | O=C(c1c[nH]cn1)N1CCC(F)(F)C2(CCN(c3cccc(F)c3)C2)C1 (configuration not stated) | -7.39

Row | Compound | cytotoxicity at 70.5 h [%]
67 | COCCN1CCC12CCN(c1ncccn1)C2 (configuration not stated) | -5.32
68 | CC(=O)N1CCCC1c1nnn2cc(-c3ccncc3)ccc12 (configuration not stated) | -5.32
69 | CC(=O)N1CCCC1c1nnn2cc(Nc3ccccc3)ccc12 (configuration not stated) | -5.52
70 | Cc1ccc(N2C[C@H]3CCC[C@@H](CN4CCOCC4)[C@H]3C2)nn1 | -1.56
71 | Cc1ccc(N2C[C@H]3CCC[C@@H](CN(C)C)[C@H]3C2)nn1 | -0.102
72 | Cc1occc1C(=O)N1C[C@@H](OCc2cccnc2)[C@H]2OCCC[C@@H]21 | -21.3
73 | Cc1cccc(CN2CC[C@@H]3[C@@H]2CCN3C(=O)c2cc(C)on2)n1 | -12.4
74 | COc1ccc(CN2C[C@@H]3COC[C@@H](CC(=O)N4CCCC4)[C@@H]3C2)cc1 | -19.9
75 | Cc1ncsc1CN1C[C@@H]2COC[C@]2(CNC(=O)c2ccccc2)C1 | -7.33
76 | Cn1cc(CN2C[C@@H]3COC[C@]3(CNC(=O)c3ccccc3)C2)cn1 | -13.5
77 | Cc1ccc(CN2C[C@@H]3COC[C@@H](CC(=O)N4CCOCC4)[C@@H]3C2)s1 | -11
78 | COC1COC2(CCN(Cc3ccccc3F)CC2)C1 (configuration not stated) | -8.4
79 | O=C(C[C@@H]1COC[C@H]2CN(Cc3ccccc3)C[C@@H]12)N1CCCC1 | -14.4
80 | CN(C)C(=O)C1OC2(CCN(c3ncc(F)cn3)CC2)c2ccccc21 (configuration not stated) | 3.5
81 | CS(=O)(=O)N1CCC2(CC1)COC(COc1ccccn1)C2 (configuration not stated) | -12.3
82 | COC[C@@H]1CCC[C@]12CN(CCc1ccccc1)CCO2 | -12.8
83 | Cn1cc(N2CC3(CCN(CC4CCC4)CC3)OCC2=O)cn1 | -7.64
84 | Cn1cc(N2CC3(CCN(Cc4nccs4)CC3)OCC2=O)cn1 | 39.5
85 | CCS(=O)(=O)N1CCOCC2(CCN(c3ccccn3)C2)C1 (configuration not stated) | -11.4
86 | CS(=O)(=O)N1CCOCC2(CCN(c3ccccn3)C2)C1 (configuration not stated) | -10.4
87 | CC(=O)CN1CC2(CCNCC2)COc2ccccc2S1(=O)=O | -12.2
88 | CNC(=O)CN1CCOCC2(C1)CN(C(=O)CC(C)C)CCO2 (configuration not stated) | -4.88

Row | Compound | cytotoxicity at 70.5 h [%]
89 | COC(=O)CN1CC2(CCNCC2)COc2ccccc2S1(=O)=O | 6.67
90 | c1cnc2c(c1)CN(C1CCOC1)CCN2CC1CC1 (configuration not stated) | -8.62
91 | O=C(O)c1cc2c(nc1NCC1CC1)CCN(C1CCOC1)CC2 (configuration not stated) | -4.26
92 | O=C(N1CCCO1)[C@]12COC[C@H]1CN(Cc1cccnc1)C2 | -7.03
93 | Cn1nccc1-c1ncc2c(c1C(=O)O)CCN(Cc1cccnc1)C2 | -2.63
94 | COCCN1CCCC12CCN(Cc1cncn1C)CC2 | -1.01
95 | COc1ccc(CN2C[C@H]3CCC[C@@H](CN(C)C)[C@H]3C2)cn1 | -2.35
96 | CO[C@H]1CCN(S(=O)(=O)N(C)C)[C@@H]2CN(Cc3cccnc3)C[C@H]12 | -5.31
97 | CCS(=O)(=O)N1CC[C@H](OC)[C@H]2CN(Cc3ccncc3)C[C@H]21 | -3.99
98 | Cc1noc(C)c1CN1C[C@@H](OCc2ccccn2)[C@H]2OCCC[C@H]21 | -16.3
99 | CC(C)CN1CCC(c2nc3ccc(NC(C)C)cn3n2)CC1 | -13.1
100 | CO[C@@H]1CCN(Cc2ccoc2)[C@@H]2CN(Cc3ccco3)C[C@@H]21 | -5.98
101 | c1cncc(OCc2noc3c2CN(Cc2ccco2)CC3)c1 | -17.4
102 | N#Cc1cccc(CN2CCn3cc(Cn4cccn4)nc3C2)c1 | -16
103 | CCN(CC)c1ncnc2c1CCN(C(=O)Cc1ccccn1)CC2 | -1.31
104 | Cc1nc(CN2CCN(C3CCOC3)Cc3cccnc32)cs1 (configuration not stated) | -0.337
105 | O=C(O)c1cc2c(nc1-c1ccncc1)CCN(C1CCOC1)CC2 (configuration not stated) | -4.07
106 | Cn1nccc1-c1ncc2c(c1C(=O)O)CCN(Cc1ccccc1)C2 | 11.6
107 | Cn1ccnc1CN1C[C@H](N2CCOCC2)[C@@H]2OCCC[C@@H]21 | -3.14
